In patent publication US7829567B2, “Imino-indeno[1,2-c] quinoline derivatives, their preparation processes, and pharmaceutical compositions comprising the same” (Kaohsiung Medical University, priority 2007, dated 2010) one finds IC50 data, which are given here for 23 compounds.

What all share (assay type): cell-based
Assay [1] deals with human renal clear cell carcinoma. The experiment in a line: In vitro anticancer assay (MTT), RCC 768-O. The note with it: RCC 768-O cells, 48 hrs, mean ± spread, read-out: Anti-proliferative evaluation IC50, RCC 768-O. How it is done: (§1) The resultant tetrazolium salt was then dissolved by the addition of dimethyl sulfoxide. Color was measured spectrophotometrically in a microtiter plate reader at 570 nm and used as a relative measure of viable cell number. The number of viable cells after treatment was compared to solvent and untreated control cells and used to determine the percent of control growth as (Abtreated/Abcontrol)×100, where Ab represents the mean absorbance (n=3). […] D. Heo et al. […] (+)-camptothecin (CPT) and doxorubicin hydrochloride (Dox) were used for comparison with the compounds according to this invention.

Assay [2] has as its system hepatocellular carcinoma (SKHep1). As to the kind of experiment: In vitro anticancer assay (MTT), SKHep1. The note with it: 48 hrs, mean ± spread, read-out: Anti-proliferative evaluation IC50, SKHep1. Here is the method:
as §1

For assay [3], the system named is human stomach adenocarcinoma (AGS). The experiment in a line: In vitro anticancer assay (MTT), AGS. The note with it: AGS cells, 48 hrs, mean ± spread, read-out: Anti-proliferative evaluation IC50, AGS. Here is the method: as §1
For assay [4], the system named is human cervical epithelioid carcinoma (HeLa). The experiment in a line: In vitro anticancer assay (MTT), HeLa. The note with it: HeLa cells, 48 hrs, mean ± spread, read-out: Anti-proliferative evaluation IC50, HeLa. Here is the method:
as §1

Assay [5] deals with esophageal carcinoma (CE81T). The experiment in a line: In vitro anticancer assay (MTT), CE81T. The note with it: CE81T cells, 48 hrs, mean ± spread, read-out: Anti-proliferative evaluation IC50, CE81T. How it is done: as §1
The subject of assay [6] is oral squamous cell carcinoma (SAS). The experiment in a line: In vitro anticancer assay (MTT), SAS. The note with it: SAS cells, 48 hrs, mean ± spread, read-out: Anti-proliferative evaluation IC50, SAS. Here is the method:
as §1

The mark [7] stands for this setting: Homo sapiens, SK-HEP1, SKHep1 cells.

Where two headings read alike, the source gives them in different places.

As to `CC[C@@]1(O)C(=O)OCc2c1cc1n(c2=O)Cc2cc3ccccc3nc2-1` [CPT, (+)-camptothecin, reference compound], the IC50 in assay [1] (Homo sapiens) is 2.8 ± 0.7 µM; in assay [2] (setting [7]) it was 0.2 ± 0.1 µM; in assay [3] (Homo sapiens), over 30 µM; in assay [4] (Homo sapiens), 0.3 ± 0.1 µM; in assay [5], 2.8 ± 1.5 µM; in assay [6] it was 6 ± 2.7 µM.
In the case of `O=C1c2ccccc2-c2c(N3CCNCC3)nc3ccccc3c21` [Compound 5aa], the IC50 in assay [1] stood at 7.7 ± 0.4 µM; in assay [2] (SKHep1 cells), 1.7 ± 1.1 µM; in assay [3], 6.5 ± 2.6 µM; in assay [4], 1.1 ± 0.6 µM; in assay [5], 11.1 ± 8.5 µM; in assay [6], 10.7 ± 0.9 µM.
Take `COc1ccc2c(c1)C(=O)c1c-2c(N2CCN(C(=O)CCNCCO)CC2)nc2ccccc12` [Compound 5aaa]: the IC50 in assay [1] worked out at 2 ± 1.4 µM; in assay [2] (SKHep1 cells) it was 4.5 ± 1.1 µM; in assay [3], 3.7 ± 0.5 µM; in assay [4] it was 3.1 ± 1.2 µM; in assay [5], 7.1 ± 0.9 µM; in assay [6], 9.1 ± 1.6 µM.
Take `CN(C)CCCNc1nc2ccccc2c2c1-c1ccccc1C2=O` [Compound 5b]: the IC50 in assay [1] is 10 ± 0.8 µM; in assay [2] (SKHep1 cells) it was 4.6 ± 1.5 µM; in assay [3], 9.8 ± 4 µM; in assay [4], 4 ± 0.9 µM; in assay [5], over 30 µM; in assay [6] it was 6.9 ± 0.5 µM.
As for `COc1ccc2c(c1)C(=O)c1c-2c(N2CCN(C(=O)CCNCCN(C)C)CC2)nc2ccccc12` [Compound 5bbb, 6-{4-{3-[2-(Dimethylamino)ethylamino]propanoyl}piperazin-1-yl}-9-methoxy-11H-indeno[1,2-c]quinolin-11-one], the IC50 in assay [1] (Homo sapiens) was determined as 7 ± 1.3 µM; in assay [2] (setting [7]), 5.1 ± 1.5 µM; in assay [3] (Homo sapiens) it was 4.9 ± 1 µM; in assay [4] (Homo sapiens), 4.8 ± 1.5 µM; in assay [5], 7.4 ± 2 µM; in assay [6] it was 8.8 ± 1 µM.
With `O=C1c2ccccc2-c2c(NCCNCCO)nc3ccccc3c21` [Compound 5c, 6-[2-(2-Hydroxyethylamino)ethylamino]-11H-indeno[1,2-c]quinolin-11-one], the IC50 was 8.3 ± 0.6 µM in assay [1] (Homo sapiens); 4.3 ± 1.5 µM in assay [2] (setting [7]); 7.9 ± 1.7 µM in assay [3] (Homo sapiens); 1 ± 0.3 µM in assay [4] (Homo sapiens); over 30 µM in assay [5]; 7.3 ± 0.6 µM in assay [6].
As for `COc1ccc2c(c1)C(=O)c1c-2c(N2CCN(C(=O)CCNCCCN(C)C)CC2)nc2ccccc12` [Compound 5ccc], the IC50 in assay [1] turned out to be 5.9 ± 0.9 µM; in assay [2] (SKHep1 cells), 8.6 ± 0.7 µM; in assay [3] it was 2.8 ± 1.3 µM; in assay [4], 5.4 ± 1.3 µM; in assay [5], 9.4 ± 0.6 µM; in assay [6], 13.5 ± 2.2 µM.
`COc1cc2c(cc1OC)-c1c(N3CCNCC3)nc3ccccc3c1C2=O` [Compound 5dd, 8,9-Dimethoxy-6-(piperazin-1-yl)-11H-indeno[1,2-c]quinolin-11-one]: the IC50 came out at 7.1 ± 0.6 µM in assay [1] (Homo sapiens); 6.6 ± 3.2 µM in assay [2] (setting [7]); 7.4 ± 2.1 µM in assay [3] (Homo sapiens); 7 ± 1.2 µM in assay [4] (Homo sapiens); 8.3 ± 0.3 µM in assay [5]; 11.7 ± 1.6 µM in assay [6].
With `COc1ccc2c(c1)C(=O)c1c-2c(N2CCN(C(=O)CCNCCNCCN)CC2)nc2ccccc12` [Compound 5ddd], the IC50 in assay [1] was over 30 µM; in assay [2] (SKHep1 cells), over 30 µM; in assay [3], 10.8 ± 0.2 µM; in assay [4] it was over 30 µM; in assay [5], over 30 µM; in assay [6], over 30 µM.
For the compound `COc1ccc2c(c1)C(=O)c1c-2c(N2CCNCC2)nc2ccc(F)cc12` [Compound 5ee, 2-Fluoro-9-methoxy-6-(piperazin-1-yl)-11H-indeno[1,2-c]quinolin-11-one], the IC50 is 4.7 ± 3 µM in assay [1] (Homo sapiens); 16.5 ± 5.1 µM in assay [2] (setting [7]); 6.5 ± 0.9 µM in assay [3] (Homo sapiens); over 30 µM in assay [4] (Homo sapiens); 0.9 ± 0.6 µM in assay [5]; 6.9 ± 0.5 µM in assay [6].
In the case of `COc1ccc2c(c1)C(=O)c1c-2c(N2CCN(C(=O)CCNCCNCCO)CC2)nc2ccccc12` [Compound 5eee], the IC50 in assay [1] was 15 ± 3.5 µM; in assay [2] (SKHep1 cells), 11.2 ± 0.9 µM; in assay [3], 16 ± 0.9 µM; in assay [4], 10.6 ± 1.2 µM; in assay [5] it was over 30 µM; in assay [6] it was over 30 µM.
For `COc1ccc2c(c1OC)C(=O)c1c-2c(N2CCNCC2)nc2ccc(Cl)cc12` [Compound 5ff, 2-Chloro-9,10-dimethoxy-6-(piperazin-1-yl)-11H-indeno[1,2-c]quinolin-11-one], the half-maximal inhibitory concentration (IC50) in assay [1] (Homo sapiens) was 6.9 ± 0.3 µM; in assay [2] (setting [7]) it was 4.7 ± 2.2 µM; in assay [3] (Homo sapiens) it was 9.5 ± 2.7 µM; in assay [4] (Homo sapiens), 4.6 ± 0.7 µM; in assay [5], over 30 µM; in assay [6], 11 ± 3.2 µM.
`COc1ccc2c(c1)C(=O)c1c-2c(N2CCN(C(=O)CCNCCCN(C)CCCN)CC2)nc2ccccc12` [Compound 5fff]: the IC50 in assay [1] was over 30 µM; in assay [2] (SKHep1 cells), 23.5 ± 1.4 µM; in assay [3], 10.8 ± 1.9 µM; in assay [4], over 30 µM; in assay [5], over 30 µM; in assay [6], over 30 µM.
As for `COc1ccc2c(c1)C(=O)c1c-2c(N2CCN(C(=O)CCN3CCNCC3)CC2)nc2ccccc12` [Compound 5ggg], the IC50 in assay [1] came out at 1.5 ± 1.3 µM; in assay [2] (SKHep1 cells), 4.9 ± 1.1 µM; in assay [3], 5.5 ± 0.5 µM; in assay [4], 4.7 ± 1.4 µM; in assay [5] it was 7.2 ± 1.5 µM; in assay [6], 7.7 ± 0.9 µM.
Consider `COc1ccc2c(c1)C(=O)c1c-2c(N2CCN(C(=O)CCN3CCOCC3)CC2)nc2ccccc12` [Compound 5hhh], for which the IC50 in assay [1] was over 30 µM; in assay [2] (SKHep1 cells) it was 15 ± 5.9 µM; in assay [3] it was 12 ± 1.3 µM; in assay [4] it was 14.3 ± 4.4 µM; in assay [5] it was over 30 µM; in assay [6] it was over 30 µM.
With `COc1ccc2c(c1)C(=O)c1c-2c(NCCCN(C)C)nc2ccccc12` [Compound 5i, 6-[3-(Dimethylamino)propylamino]-9-methoxy-11H-indeno[1,2-c]quinolin-11-one], the half-maximal inhibitory concentration (IC50) in assay [1] (Homo sapiens) was over 30 µM; in assay [2] (setting [7]) it was 11.5 ± 5.4 µM; in assay [3] (Homo sapiens), 14.3 ± 0.5 µM; in assay [4] (Homo sapiens) it was 2 ± 0.4 µM; in assay [5], 7.1 ± 0.3 µM; in assay [6], 5.5 ± 0.5 µM.
As for `COc1ccc2c(c1)C(=O)c1c-2c(N2CCN(C(=O)CCNCCN3CCNCC3)CC2)nc2ccccc12` [Compound 5iii], the IC50 in assay [1] is over 30 µM; in assay [2] (SKHep1 cells), 11.5 ± 5.6 µM; in assay [3], 13.4 ± 1.3 µM; in assay [4], over 30 µM; in assay [5] it was over 30 µM; in assay [6] it was over 30 µM.
Regarding `COc1ccc2c(c1)C(=O)c1c-2c(N2CCN(C(=O)CCCN(C)C)CC2)nc2ccccc12` [Compound 5jjj], the IC50 is 5.3 ± 0.5 µM in assay [1]; 5.5 ± 0.8 µM in assay [2] (SKHep1 cells); 5.4 ± 0.6 µM in assay [3]; 4.9 ± 1.7 µM in assay [4]; over 30 µM in assay [5]; 8 ± 0.8 µM in assay [6].
Turning to `CNCC(=O)N1CCN(c2nc3ccccc3c3c2-c2ccc(OC)cc2C3=O)CC1` [Compound 5kk], the IC50 in assay [1] turned out to be 6.2 ± 1.9 µM; in assay [2] (SKHep1 cells), 4.8 ± 2.1 µM; in assay [3], 7.2 ± 1.5 µM; in assay [4] it was 2 ± 0.6 µM; in assay [5] it was 2.3 ± 1.3 µM; in assay [6], 7.4 ± 0.9 µM.
Consider `COc1ccc2c(c1)C(=O)c1c-2c(N2CCN(CC3CO3)CC2)nc2ccccc12` (stereo not shown) [Compound 5kkk, 9-methoxy-6-[4-(oxiran-2-ylmethyl)piperazin-1-yl]-11H-indeno[1,2-c]quinolin-11-one], for which the IC50 was 19.1 ± 3.1 µM in assay [1] (Homo sapiens); over 30 µM in assay [2] (setting [7]); 21.4 ± 10.1 µM in assay [3] (Homo sapiens); 10.7 ± 1.2 µM in assay [4] (Homo sapiens); 0.6 µM in assay [5]; over 30 µM in assay [6].
Take `COc1ccc2c(c1)C(=O)c1c-2c(N2CCN(C(=O)CN(C)C)CC2)nc2ccccc12` [Compound 5ll]: the IC50 in assay [1] is 14.1 ± 3.4 µM; in assay [2] (SKHep1 cells), 19.2 ± 5.4 µM; in assay [3], 8.7 ± 1.2 µM; in assay [4], 11.8 ± 2.8 µM; in assay [5] it was over 30 µM; in assay [6], over 30 µM.
As to `COc1ccc2c(c1)C(=NOCCN1CCCC1)c1c-2cnc2ccccc12` [Compound 6aa, 9-methoxy-11H-indeno[1,2-c]quinolin-11-one O-2-(pyrrolidin-1-yl)ethyl oxime], the IC50 in assay [1] (Homo sapiens) was 5.7 ± 1 µM; in assay [2] (setting [7]) it was 1.5 ± 0.3 µM; in assay [3] (Homo sapiens), over 30 µM; in assay [4] (Homo sapiens), 0.4 ± 0.02 µM; in assay [6], 1.2 ± 0.2 µM.
Taken in the same sequence, the figures for `COc1ccc2c(c1)C(=NOCCN1CCCC1)c1c-2c(O)nc2ccccc12` [Compound 6bb, 6-hydroxy-9-methoxy-11H-indeno[1,2-c]quinolin-11-one O-2-(pyrrolidin-1-yl)ethyl oxime] were 3.7 ± 0.8 µM, 1.2 ± 0.3 µM, 10.4 ± 3 µM, 0.2 ± 0.02 µM and 0.8 ± 0.1 µM.

By IC50 is commonly meant the concentration needed to halve the response being measured.
